Assay results reported in patent US11279736B2, “Conformationally-preorganized, MiniPEG-containing gamma-peptide nucleic acids” (CARNEGIE MELLON UNIVERSITY, priority 2011, dated 2022).
[RMPγPNA-N] = PNA unit with R-MP-gamma backbone modification (N: the base)

Columns and labels:
[1] = test system: complementary DNA strand; experiment: UV-melting / van't Hoff analysis of PNA-DNA hybrid duplexes; assay type: binding; conditions: PNA-DNA duplex; for −ΔG° / −ΔH° / −ΔTS°: averages of three trials
Method: (§1) FIGS. 2A-2B illustrate UV-melting profiles of PNA-DNA (FIG. 2A) and PNA-RNA (FIG. 2B) hybrid duplexes at a strand concentration of […] each in 10 mM sodium phosphate buffer at pH 7.4. While both the heating and cooling runs were performed because they both have nearly identical profiles UV-melting for only the heating runs are shown.
UV-melting experiments were performed to determine the effect of MP on the thermal stability of PNA oligomers following hybridization to DNA or an RNA. FIG. 3A illustrates that the incorporation of a single miniPEG side-chain stabilized a PNA-DNA duplex by 4° C. […] However, increase in thermal stability tapers off to a value of about 2.3° C. per unit for the fully-modified oligomer, that is an oligomer made up of R-MP-γPNA groups only (e.g., PNA5).
(§2) Further insights related to the contribution of miniPEG to the stability of the PNA-DNA duplex was obtained from van′t Hoff analysis. Data in Table 2 show the thermodynamic parameters associated with hybridization of PNA1 through 5 to a complementary DNA or RNA strand.

[2] = test system: complementary RNA strand; experiment: UV-melting / van't Hoff analysis of PNA-RNA hybrid duplexes; assay type: binding
Method: as §1
A similar pattern is observed for a R-MP-γPNA-RNA duplex, but the observed increase in thermal stability is lower for a R-MP-γPNA-RNA duplex as compared to a R-MP-γPNA-DNA duplex (FIG. 3B). The enhancement in thermal stability of a R-MP-γPNA-RNA duplex is only 3° C. for the first R-MP-γPNA-monomer that is incorporated into the PNA oligomer and this gain in thermal stability reduces to about 1.2° C. per R-MP-γPNA monomer for an oligomer made entirely R-MP-γPNA (PNA5). In contrast the gain in thermal stability is about 2.3° C./unit for R-MP-γPNA-DNA duplexes.
as §2

[3] = test system: immobilized complementary DNA; experiment: Surface plasmon resonance (SPR) hybridization kinetics; assay type: binding; conditions: for association rate constant ka / dissociation rate constant kd: 1:1 binding model; for dissociation rate constant kd: † values approach limits of detection
Method: FIG. 4 illustrates surface plamon resonance (SPR) sensorgrams (solid black lines) and fits (dotted lines) for hybridization of PNA probes to immobilized complementary DNA. Solutions contained 30 nM PNA. Error bars at t=420 sec illustrate standard deviations for three separate trials.
Surface plasmon resonance (SPR) analysis is used to study the hybridization kinetics of ^R-MPγPNA-DNA and ^R-MPγPNA-RNA duplexes. Briefly, SPR was performed as follows. According to one embodiment, the PNA probe was immobilized to the chip while the DNA target was captured from solution. In another embodiment, a biotinylated version of the DNA target is immobilized on a streptavidin-conjugated, carboxymethylated dextran chip at a relatively low surface density (ca. 100 response units) of DNA targets to limit mass transport effects on the association kinetics. Solutions containing 10-50 nM PNA oligomers are allowed to flow over the chip for about 420 seconds, at which point the flow is switched to a PNA-free buffer to allow net dissociation of the hybridized PNA.

[4] = Temperature-dependent CD measurements of PNA oligomers; assay type: physicochemical; conditions: 80° C.; 5 μM oligomer, 10 mM sodium phosphate buffer pH 7.4
Method: FIG. 1A illustrates CD spectra of PNA5 and PNA2 (Inset) as a function of temperature. Melting transition (Tm) of PNA2 through 5 as determined by CD, monitored at 260 nm. The oligomer concentration was 5 μM, prepared in 10 mM sodium phosphate buffer at pH 7.4.

[5] = test system: DNA: 3′-[…]-5, X = A, C, G, T (SEQ ID NO: 11); experiment: Sequence mismatch discrimination, thermal stability of PNA-DNA duplexes; assay type: binding
Method: (§3) CD, NMR, and X-ray data have shown that γPNAs derived from L-amino acids adopt a right-handed helix, and that the helix becomes more rigid as more γ-chiral units are added in the backbone. One would therefore expect a fully-modified PNA5 to hybridize to DNA and RNA targets with greater sequence selectivity than PNA1. To verify this hypothesis, thermal stabilities of PNA5-DNA and PNA5-RNA duplexes containing perfectly-matched (PM) and single-base mismatched (MM) targets were determined and compared to those from an earlier study with PNA1-DNA and PNA1-RNA duplexes. […] The ΔTm ranges from −17 to −21° C. for PNA5-DNA and −16 to −20° C. for PNA5-RNA containing a single-base mismatch (X=C, G, T), as compared to −10 to −14° C. for PNA1-DNA and −11 to −18° C. for PNA1-RNA duplex (Table 4). The level of sequence discrimination is greater for PNA5-DNA than for PNA1-DNA, and similar, if not slightly better, for PNA5-RNA as compared to PNA1-RNA.

[6] = test system: RNA: 3′-CGUACAXACU-5, X = A, C, G, U (SEQ ID NO: 12); experiment: Sequence mismatch discrimination, thermal stability of PNA-RNA duplexes; assay type: binding
Method: as §3

[7] = PNA-RNA duplex, 298 K, UV-melting curve fitting

In the case of “H-GCATGTTTGA-NH2 [PNA2] (PNA; 1 R-MP-gamma unit; C-terminal amide; modified_base (6)..(6) R-MP-gamma-backbone modified nucleotide)”, the Kd ([1]; 298 K, UV melting) is reported as 320 pM, the “−ΔG°” value ([1]; 298 K) is reported as 12.9 ± 0.24 kcal/mol and the “−ΔH°” value ([1]; 298 K) is reported as 76.2 ± 4.3 kcal/mol. For the same substance, the “−ΔTS°” value ([1]; 298 K) was 62.9 ± 3.82 kcal/mol, the Kd [2, 7] was 1.2 pM and the “−ΔG°” value [2, 7] was 16.3 kcal/mol. The “−ΔH°” value [2, 7] was 79.6 kcal/mol, the “−ΔTS°” value [2, 7] was 55.4 kcal/mol and the “association kinetics relative to the unmodified PNA” value ([3]; SPR, 30 nM PNA) was “approximately twice as fast”. The “association rate constant ka” value ([3]; SPR) was 970000 M⁻¹ s⁻¹, the “dissociation rate constant kd” value ([3]; SPR) was 0.00041 s⁻¹ and the Kd ([3]; SPR, ratio of dissociation and association rate constants, † values uncertain, read-out: equilibrium dissociation constant Kd) was 420 pM. The “CD profile / base-stacking at high temperature” value [4] was “completely denatured”.
In the case of “H-GCATGTTTGA-NH2 [PNA5] (all [RMPγPNA-N], methylation of C not given here; C-terminal amide)”, the “increase in thermal stability per miniPEG unit” value ([1]; UV-melting) is reported as “about 2.3 °C per unit”, the “−ΔG°” value ([1]; 298 K) is reported as 18.6 ± 0.48 kcal/mol and the “−ΔH°” value ([1]; 298 K) is reported as 88.9 ± 2.63 kcal/mol. The “−ΔTS°” value ([1]; 298 K) was 70.3 ± 2.39 kcal/mol, the “gain in thermal stability per R-MP-γPNA monomer” value ([2]; PNA-RNA duplex, UV-melting) was “about 1.2 °C per R-MP-γPNA monomer” and the “−ΔG°” value [2, 7] was 18.6 kcal/mol. For the same substance, the “−ΔH°” value [2, 7] was 87.2 kcal/mol, the “−ΔTS°” value [2, 7] was 68.6 kcal/mol and the “differential Tm (ΔTm), RNA versus DNA binding” value ([2]; duplex with RNA compared to duplex with DNA) was “identical thermal stability”. For the same substance, the “association rate constant ka” value ([3]; SPR) was 800000 M⁻¹ s⁻¹, the “dissociation rate constant kd” value ([3]; SPR) was 0.4 × 10^−4 ^† s^−1 and the “SPR-derived Kd relative to Kd determined by UV melting experiments” value ([3]; Table 3 versus Table 2, DNA target) was 1200 fold. The Tm ([5]; C<>T mismatch) was 47 °C, the “ΔTm between the perfect match and mismatch” value ([5]; C<>T mismatch) was “(−21) ° C” and the Tm ([5]; G<>T mismatch) was 48 °C. For the same substance, the “ΔTm between the perfect match and mismatch” value ([5]; G<>T mismatch) was “(−20) ° C”, the Tm ([5]; T(U)<>T mismatch) was 51 °C and the “ΔTm between the perfect match and mismatch” value ([5]; T(U)<>T mismatch) was “(−17) ° C”. The Tm ([5]; X = A (A-T perfect match)) was 68 °C, the “ΔTm, single-base mismatch (X=C, G, T)” value ([5]; range over mismatches) was −17 to −21 °C and the Tm ([6]; C<>T mismatch) was 48 °C. The “ΔTm between the perfect match and mismatch” value ([6]; C<>T mismatch) was “(−20) ° C”, the Tm ([6]; G<>T mismatch) was 52 °C and the “ΔTm between the perfect match and mismatch” value ([6]; G<>T mismatch) was “(−16) ° C”. For the same substance, the Tm ([6]; T(U)<>T mismatch) was 48 °C, the “ΔTm between the perfect match and mismatch” value ([6]; T(U)<>T mismatch) was “(−20) ° C” and the Tm ([6]; X = A (A-T perfect match)) was 68 °C. The “ΔTm, single-base mismatch (X=C, G, T)” value ([6]; range over mismatches) was −16 to −20 °C and the “CD profile / base-stacking at high temperature” value [4] was “distinct CD profile”.
